Results from patent US11000033B2, “Ketone or oxime compound, and herbicide” (NISSAN CHEMICAL CORPORATION, priority 2014, dated 2021).

Columns and labels:
Assay type in all cases: in vivo
rapeseed = experiment: Test Example 5: effect on crop by foliage application, plastic box (symbol g); conditions: 320 g/ha, 3 weeks after application
Outline: (§1)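 Seeds were sown in spots in sterilized diluvial soil held in a plastic box 21 cm × 13 cm × 7 cm deep, covered with about 1.5 cm of soil, and grown in a greenhouse at 25° C. to 30° C.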

Galium spurium = experiment: Test Example 5: herbicidal effect by foliage application, plastic box (symbol Q); conditions: 320 g/ha, 3 weeks after application
Outline: (§2)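 Herbicide, formulated as an emulsion and diluted in water, is sprayed onto the aerial parts of 14-day seedlings. These were grown at 25° C. to 30° C. in sterilized diluvial soil; effects are graded after 3 weeks.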

[1] = tested on: directly sowed rice plant; experiment: Test Example 3: effect on crop by foliage application, Wagner pot (symbol b); conditions: application herbicide amount 320 g/ha; for b (directly sowed rice plant) effect on crop grade: Table 24
Outline: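 Greenhouse culture at 25–30 °C of seeded rice, Cyperus difformis, Leptochloa chinensis and Echinochloa crus-galli var. crus-galli, in alluvial soil held under 0.1–0.5 cm of water in a Wagner pot.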

Setaria viridis [2] = experiment: Test Example 4: herbicidal effect by soil treatment (symbol G); conditions: for Herbicidal effect grade, G: Setaria viridis: application herbicide amount 320 g/ha; for G: Setaria viridis, herbicidal effect grade: 320 g/ha
Outline: (§3)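 Seeds were sown in sterilized diluvial soil, covered with about 1.5 cm of soil, and the soil surface was sprayed with a water-diluted emulsion of the compound at a predetermined rate. Plants grew in a greenhouse at 25° C. to 30° C.; effects were scored visually 3 weeks after application.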

Stellaria media = experiment: Test Example 4: herbicidal effect by soil treatment (symbol P); conditions: for Herbicidal effect grade, P: Stellaria media: application herbicide amount 320 g/ha; for P: Stellaria media, herbicidal effect grade: 320 g/ha
Outline: as §3

Digitaria ciliaris = experiment: Test Example 4: herbicidal effect by soil treatment (symbol F); conditions: for Herbicidal effect grade, F: Digitaria ciliaris: application herbicide amount 320 g/ha; for F: Digitaria ciliaris, herbicidal effect grade: 320 g/ha
Outline: as §3

Veronica persica = experiment: Test Example 4: herbicidal effect by soil treatment (symbol R); conditions: for Herbicidal effect grade, R: Veronica persica: application herbicide amount 320 g/ha; for R: Veronica persica, herbicidal effect grade: 320 g/ha
Outline: as §3

[3] = tested on: Echinochloa crus-galli var. crus-galli; experiment: Test Example 5: herbicidal effect by foliage application, plastic box (symbol H); conditions: 320 g/ha, 3 weeks after application
Outline: as §2

Monochoria vaginalis = experiment: Test Example 2: herbicidal activity, application during weed generation in submerged conditions (symbol C); conditions: Table 23; application herbicide amount 320 g/ha; grade 0-5 by criteria of Test Example 1
Outline: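 Alluvial soil in pots was flooded to a 4 cm water depth and sown with a mix of the three weed species, then grown in a greenhouse at 25° C. to 30° C. At the one- to two-leaf stage, an emulsifiable formulation diluted in water to a set dose was applied to the water surface. Effects were scored visually 3 weeks later.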

Setaria viridis [4] = experiment: Test Example 5: herbicidal effect by foliage application, plastic box (symbol G); conditions: 320 g/ha, 3 weeks after application
Outline: as §2

soybean [5] = experiment: Test Example 5: effect on crop by foliage application, plastic box (symbol d); conditions: 320 g/ha, 3 weeks after application
Outline: as §1

beet = experiment: Test Example 5: effect on crop by foliage application, plastic box (symbol f); conditions: 320 g/ha, 3 weeks after application
Outline: as §1

Scirpus juncoides = experiment: Test Example 1: herbicidal activity, application before weed generation in submerged conditions (symbol B); conditions: application herbicide amount 320 g/ha
Outline: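 Mixed weed seeds sown in alluvial soil under 4 cm of water, with rice seedlings at the 2.5-leaf stage added. Same-day treatment: emulsion diluted to a set herbicide amount onto the water. Three weeks at 25–30 °C, then graded on a six-step scale.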

soybean [6] = experiment: Test Example 4: effect on crop by soil treatment (symbol d); conditions: for Effect on crop grade, d: soybean: application herbicide amount 320 g/ha; for d: soybean, effect grade on crop: 320 g/ha
Outline: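 Soil-treatment setup: crop and weed seeds were spot-sown into sterilized diluvial soil, then buried beneath approximately 1.5 cm of it, and the boxes were housed in a 25–30° C. greenhouse.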

[7] = tested on: Echinochloa crus-galli var. crus-galli; experiment: Test Example 4: herbicidal effect by soil treatment (symbol H); conditions: for Herbicidal effect grade, H: Echinochloa crus-galli var. crus-galli: application herbicide amount 320 g/ha; for H: Echinochloa crus-galli var. crus-galli, herbicidal effect grade: 320 g/ha
Outline: as §3

Row | SMILES | g: rapeseed, effect on crop grade (rapeseed) | Q: Galium spurium, herbicidal effect grade (Galium spurium) | b (directly sowed rice plant) effect on crop grade [1] | Herbicidal effect grade, G: Setaria viridis (Setaria viridis [2]) | Herbicidal effect grade, P: Stellaria media (Stellaria media) | Herbicidal effect grade, F: Digitaria ciliaris (Digitaria ciliaris) | Herbicidal effect grade, R: Veronica persica (Veronica persica) | Herbicidal effect grade, C: Monochoria vaginalis (Monochoria vaginalis) | g: rapeseed, effect on crop (criteria 0-5) (rapeseed) | Q: Galium spurium, herbicidal effect (criteria 0-5) (Galium spurium) | G: Setaria viridis, herbicidal effect grade (Setaria viridis [2]) | P: Stellaria media, herbicidal effect grade (Stellaria media) | R: Veronica persica, herbicidal effect grade (Veronica persica) | H: Echinochloa crus-galli var. crus-galli, herbicidal effect (criteria 0-5) [3] | G: Setaria viridis, herbicidal effect (criteria 0-5) (Setaria viridis [4]) | d: soybean, effect on crop (criteria 0-5) (soybean [5]) | f: beet, effect on crop (criteria 0-5) (beet) | Herbicidal effect grade, B: Scirpus juncoides (Scirpus juncoides) | d: soybean, effect grade on crop (soybean [6]) | H: Echinochloa crus-galli var. crus-galli, herbicidal effect grade [7] | other results
1 | COCCON=C(C)CC1CC(O)=C(c2c(C)cc(-n3cc(Cl)cn3)cc2C)C1=O (stereo not shown) [9-016] | 3 (Herbicidal ratio of 40% or higher and lower than 70%) | 2 (Herbicidal ratio of 20% or higher and lower than 40%) | 5 (Herbicidal ratio of 90% or more (almost completely withered)) | 5 (Herbicidal ratio of 90% or more (almost completely withered)) | 0 (Herbicidal ratio of 5% or lower (almost no effect)) | 5 (Herbicidal ratio of 90% or more (almost completely withered)) | 0 (Herbicidal ratio of 5% or lower (almost no effect)) | 1 (Herbicidal ratio of 5% or higher and lower than 20%) |  |  |  |  |  |  |  |  |  |  |  |  | H: Echinochloa crus-galli var. crus-galli, herbicidal effect grade [3]: 5 (Herbicidal ratio of 90% or more (almost completely withered)); G: Setaria viridis, herbicidal effect grade (Setaria viridis [4]): 5 (Herbicidal ratio of 90% or more (almost completely withered)); d: soybean, effect on crop grade (soybean [5]): 3 (Herbicidal ratio of 40% or higher and lower than 70%); f: beet, effect on crop grade (beet): 0 (Herbicidal ratio of 5% or lower (almost no effect)); B (Scirpus juncoides) herbicidal effect grade (Scirpus juncoides): 5 (Herbicidal ratio of 90% or more (almost completely withered)); Effect on crop grade, d: soybean (soybean [6]): 0 (Herbicidal ratio of 5% or lower (almost no effect)); Herbicidal effect grade, H: Echinochloa crus-galli var. crus-galli [7]: 5 (Herbicidal ratio of 90% or more (almost completely withered))
2 | CON=C(CC1CC(O)=C(c2c(C)cc(C)cc2C)C1=O)c1ccc(F)cc1 (stereo not shown) [1-133] |  |  |  |  |  |  |  | 0 (Herbicidal ratio of 5% or lower (almost no effect)) | 4 (Herbicidal ratio of 70% or higher and lower than 90%) | 0 (Herbicidal ratio of 5% or lower (almost no effect)) | 4 (Herbicidal ratio of 70% or higher and lower than 90%) | 0 (Herbicidal ratio of 5% or lower (almost no effect)) | 0 (Herbicidal ratio of 5% or lower (almost no effect)) | 4 (Herbicidal ratio of 70% or higher and lower than 90%) | 4 (Herbicidal ratio of 70% or higher and lower than 90%) | 3 (Herbicidal ratio of 40% or higher and lower than 70%) | 3 (Herbicidal ratio of 40% or higher and lower than 70%) | 0 (Herbicidal ratio of 5% or lower (almost no effect)) | 4 (Herbicidal ratio of 70% or higher and lower than 90%) | 4 (Herbicidal ratio of 70% or higher and lower than 90%) | effect on crop b (directly sowed rice plant), grade 0-5 [1]: 0 (Herbicidal ratio of 5% or lower (almost no effect)); F: Digitaria ciliaris, herbicidal effect grade (Digitaria ciliaris): 4 (Herbicidal ratio of 70% or higher and lower than 90%)
3 | CC#Cc1cc(C)c(C2=C(O)CC(CC(C)=NOCC(F)(F)F)C2=O)c(C)c1 (stereo not shown) [9-011] | 4 (Herbicidal ratio of 70% or higher and lower than 90%) | 1 (Herbicidal ratio of 5% or higher and lower than 20%) | 5 (Herbicidal ratio of 90% or more (almost completely withered)) | 5 (Herbicidal ratio of 90% or more (almost completely withered)) | 0 (Herbicidal ratio of 5% or lower (almost no effect)) | 5 (Herbicidal ratio of 90% or more (almost completely withered)) | 0 (Herbicidal ratio of 5% or lower (almost no effect)) | 4 (Herbicidal ratio of 70% or higher and lower than 90%) |  |  |  |  |  |  |  |  |  |  |  |  | H: Echinochloa crus-galli var. crus-galli, herbicidal effect grade [3]: 5 (Herbicidal ratio of 90% or more (almost completely withered)); G: Setaria viridis, herbicidal effect grade (Setaria viridis [4]): 5 (Herbicidal ratio of 90% or more (almost completely withered)); d: soybean, effect on crop grade (soybean [5]): 2 (Herbicidal ratio of 20% or higher and lower than 40%); f: beet, effect on crop grade (beet): 0 (Herbicidal ratio of 5% or lower (almost no effect)); B (Scirpus juncoides) herbicidal effect grade (Scirpus juncoides): 5 (Herbicidal ratio of 90% or more (almost completely withered)); Effect on crop grade, d: soybean (soybean [6]): 0 (Herbicidal ratio of 5% or lower (almost no effect)); Herbicidal effect grade, H: Echinochloa crus-galli var. crus-galli [7]: 5 (Herbicidal ratio of 90% or more (almost completely withered))
4 | CC(CC1CC(O)=C(c2c(C)cc(C)cc2C)C1=O)=NOCc1ccccc1Cl (stereo not shown) [1-113] |  |  |  |  |  |  |  | 0 (Herbicidal ratio of 5% or lower (almost no effect)) | 5 (Herbicidal ratio of 90% or more (almost completely withered)) | 0 (Herbicidal ratio of 5% or lower (almost no effect)) | 0 (Herbicidal ratio of 5% or lower (almost no effect)) | 0 (Herbicidal ratio of 5% or lower (almost no effect)) | 0 (Herbicidal ratio of 5% or lower (almost no effect)) | 4 (Herbicidal ratio of 70% or higher and lower than 90%) | 4 (Herbicidal ratio of 70% or higher and lower than 90%) | 0 (Herbicidal ratio of 5% or lower (almost no effect)) | 0 (Herbicidal ratio of 5% or lower (almost no effect)) | 4 (Herbicidal ratio of 70% or higher and lower than 90%) | 0 (Herbicidal ratio of 5% or lower (almost no effect)) | 0 (Herbicidal ratio of 5% or lower (almost no effect)) | F: Digitaria ciliaris, herbicidal effect grade (Digitaria ciliaris): 1 (Herbicidal ratio of 5% or higher and lower than 20%)
5 | CC(CC1CC(O)=C(c2c(C)cc(C)cc2C)C1=O)=NOCc1ccc(C(F)(F)F)cc1 (stereo not shown) [1-138] |  |  |  |  |  |  |  | 2 (Herbicidal ratio of 20% or higher and lower than 40%) | 4 (Herbicidal ratio of 70% or higher and lower than 90%) | 3 (Herbicidal ratio of 40% or higher and lower than 70%) | 4 (Herbicidal ratio of 70% or higher and lower than 90%) | 0 (Herbicidal ratio of 5% or lower (almost no effect)) | 0 (Herbicidal ratio of 5% or lower (almost no effect)) | 5 (Herbicidal ratio of 90% or more (almost completely withered)) | 5 (Herbicidal ratio of 90% or more (almost completely withered)) | 0 (Herbicidal ratio of 5% or lower (almost no effect)) | 0 (Herbicidal ratio of 5% or lower (almost no effect)) | 5 (Herbicidal ratio of 90% or more (almost completely withered)) | 0 (Herbicidal ratio of 5% or lower (almost no effect)) | 5 (Herbicidal ratio of 90% or more (almost completely withered)) | effect on crop b (directly sowed rice plant), grade 0-5 [1]: 5 (Herbicidal ratio of 90% or more (almost completely withered))
